Assay results as given in US8501450B2, “Hepatitis C virus variants” (priority 2005, dated 2013).
“And” between values parts separate entries of the source, which are not always exact repeats. Equal entries are not always repeated.

Tests used:
[1] = biological target: HCV NS3 protease T54A mutant (UniProt P27958, T1080A, species not given); conditions: enzyme IC50 vs genotype 1a HCV-H reference strain
[2] = biological target: HCV NS3 protease A156T mutant (UniProt P27958, A1182T, species not given); conditions: enzyme IC50 vs genotype 1a HCV-H reference strain
[3] = system: wild-type HCV replicon Con1-mADE cells; assay: microbe, parasite or virus in culture; conditions: Hepatitis C virus, 48 h, read-out: Replicon IC50
Text: (§1) The stable wild-type (mADE) and variant HCV sub-genomic replicon cell lines were generated using the T7 RNA runoff transcripts from the corresponding high efficiency Con1 replicon plasmids.
(§2) The stable wild-type and variant HCV sub-genomic replicon cell lines were generated using the 17 RNA runoff transcripts from the corresponding high efficiency Con1 replicon plasmids.

[4] = system: wild-type HCV replicon Con1-mADE cells; conditions: for Fold change of replicon IC50: wild-type replicon relative to itself
Text: as §1, §2

[5] = system: HCV replicon cells, NS3 R155T variant; conditions: for Fold change of replicon IC50: R155T IC50 divided by wild-type replicon IC50
Text: as §1, §2

[6] = system: HCV variant mixture in patient plasma; assay: Average phenotype for each patient; format: in vivo, patients; conditions: for Average Phenotype: individual subjects
Text: The genotypic analyses performed here allowed a detailed examination of the relative proportion of different resistant mutants within each patient. To better understand the level of phenotypic resistance conferred by these viral mixtures, exploratory analyses were done to obtain an average phenotype for each patient. The percent of virions with a given single or double mutation was multiplied by the average fold change in enzyme IC50 for that given mutant (Table 3), and then all values were added for each patient. […] An analysis correlating pharmacokinetic data with resistance patterns is currently underway.

[7] = system: HCV replicon cells, NS3 R155M variant
Text: as §1, §2

[8] = system: HCV replicon cells, NS3 R155K variant
Text: as §1, §2

[9] = patients that continued to decline, follow-up
[10] = plateau group of patients, Day 14
[11] = rebound group of patients, Day 14
[12] = rebound group of patients, follow-up

## COc1ccc2c(O[C@@H]3C[C@H]4C(=O)N[C@]5(C(=O)O)C[C@H]5/C=C\CCCCC[C@H](NC(=O)OC5CCCC5)C(=O)N4C3)cc(-c3csc(NC(C)C)n3)nc2c1 [BILN 2061]
[1]
  Fold change: 2.3 fold
[2]
  Fold change: >183 fold

## NC(=O)c1ncn([C@@H]2O[C@H](CO)[C@@H](O)[C@H]2O)n1 [Ribavirin, 1-beta-D-ribofuranosyl-1H-1,2,4-triazole-3-carboxamide]
[3]
  IC50: 58 ± 18 µM
[4]
  Fold change of replicon IC50: 1.0 ± 0.3 fold
[5]
  Fold change of replicon IC50: 0.6 ± 0.3 fold

## CCC[C@H](NC(=O)[C@@H]1[C@H]2CCC[C@H]2CN1C(=O)[C@@H](NC(=O)[C@@H](NC(=O)c1cnccn1)C1CCCCC1)C(C)(C)C)C(=O)C(=O)NC1CC1 [VX-950]
[3]
  IC50: 0.485 ± 0.108 µM
[6]; 450 mg, FU (7-10 days after ETR)
  Average Phenotype: 28.94 and 3.13 and 8.65 and 1.14 and 0.83 and 29.43 and 14.81
[6]; 750 mg, ETR (Day 14)
  Average Phenotype: 466.14 and 466.00
[6]; 750 mg, FU (7-10 days after ETR)
  Average Phenotype: 9.33 and 45.74 and 126.48 and 9.65 and 3.17 and 4.92 and 0.00
[6]; 1250 mg, ETR (Day 14)
  Average Phenotype: 10.15 and 26.13 and 9.38 and 14.39 and 14.59 and 47.49 and 147.96 and 25.96 and 466.00
[6]; 1250 mg, FU (7-10 days after ETR)
  Average Phenotype: 9.39 and 26.03 and 10.65 and 12.33 and 15.28 and 15.38 and 7.93 and 1.87 and 30.97
[6]; [9]
  Average phenotype, mean value: 4
  Average phenotype, range: 0-10
[6]; [10]
  Average phenotype, mean value: 272
  Average phenotype, range: 26-466
[6]; plateau group of patients, follow-up
  Average phenotype, mean value: 32
[6]; [11]
  Average phenotype, mean value: 27
  Average phenotype, range: 6-70
[6]; [12]
  Average phenotype, mean value: 15
  Average phenotype, range: 3-29

## IFN-α
[4]
  Fold change of replicon IC50: 1.0 ± 0.1 fold
[4]; wild-type replicon, 48-h assay, mean ± SD of three experiments
  Replicon IC50: 11.6 ± 1.1 U/ml
[7]; R155M IC50 divided by wild-type replicon IC50
  Fold change of replicon IC50: 0.4 ± 0.1 fold
[7]; R155M replicon, 48-h assay, mean ± SD of three experiments
  Replicon IC50: 4.9 ± 1.0 U/ml
[5]
  Fold change of replicon IC50: 0.4 ± 0.3 fold
[5]; R155T replicon, 48-h assay, mean ± SD of three experiments
  Replicon IC50: 4.8 ± 3.3 U/ml
[8]; R155K IC50 divided by wild-type replicon IC50
  Fold change of replicon IC50: 1.3 ± 1.1 fold
[8]; R155K replicon, 48-h assay, mean ± SD of three experiments
  Replicon IC50: 15.2 ± 12.3 U/ml
